For 25 compounds, IC50 and max % inh results are on record in patent US11168080B2, “Dynamin-1-like protein inhibitors” (Mitobridge, Inc., priority 2017, dated 2021).

The assay has as its target Drp1 (Homo sapiens (Human), UniProt O00429). Kind of assay: Drp1 Activity Screen: colorimetric (malachite green) GTPase assay. The assay is classed as biochemical. Conditions: 1 mM GTP, 20 min at 37° C.; for IC50: GTPase activity, 0.6 μM Drp1 preincubated with 0.1 mg/mL liposomes; for max % inh: max % inhibition of Drp1 GTPase activity, 0.6 μM Drp1, 0.1 mg/mL liposomes. The protocol: The GTPase activity of Drp1 was assayed using a colorimetric assay similar to as described previously by Leonard M. et al. “Robust colorimetric assays for dynamin's basal and stimulated GTPase activities.” Methods Enzymol. […] Briefly, for GTPase assays of purified Drp1 inhibitor samples, 0.6 μM Drp1 preincubated with 0.1 mg/mL liposomes (consisting of 80% soybean lipids/20% cardiolipin) and inhibitor was added to 1 mM GTP in a microtiter plate for 20 min at 37° C. in 4 mM MgCl2, 10 mM Hepes (pH 7.0), 100 mM KCl, 1 mM DTT. Reactions were stopped by diluting with 0.5 mM EDTA. Samples were then incubated with malachite green reagent (1 mM malachite green and 50 mM ammonium molybdate in 1 N HCl), and the absorbance at 650 nm was measured. The reaction rates, IC50 values, and max % inhibition were determined using Excel/GraphPad Prism software.

SMILES strings stand for the structures. A value given as a limit tells only on which side of the number the result lay.

Sequence of Drp1 (O00429 whole entry): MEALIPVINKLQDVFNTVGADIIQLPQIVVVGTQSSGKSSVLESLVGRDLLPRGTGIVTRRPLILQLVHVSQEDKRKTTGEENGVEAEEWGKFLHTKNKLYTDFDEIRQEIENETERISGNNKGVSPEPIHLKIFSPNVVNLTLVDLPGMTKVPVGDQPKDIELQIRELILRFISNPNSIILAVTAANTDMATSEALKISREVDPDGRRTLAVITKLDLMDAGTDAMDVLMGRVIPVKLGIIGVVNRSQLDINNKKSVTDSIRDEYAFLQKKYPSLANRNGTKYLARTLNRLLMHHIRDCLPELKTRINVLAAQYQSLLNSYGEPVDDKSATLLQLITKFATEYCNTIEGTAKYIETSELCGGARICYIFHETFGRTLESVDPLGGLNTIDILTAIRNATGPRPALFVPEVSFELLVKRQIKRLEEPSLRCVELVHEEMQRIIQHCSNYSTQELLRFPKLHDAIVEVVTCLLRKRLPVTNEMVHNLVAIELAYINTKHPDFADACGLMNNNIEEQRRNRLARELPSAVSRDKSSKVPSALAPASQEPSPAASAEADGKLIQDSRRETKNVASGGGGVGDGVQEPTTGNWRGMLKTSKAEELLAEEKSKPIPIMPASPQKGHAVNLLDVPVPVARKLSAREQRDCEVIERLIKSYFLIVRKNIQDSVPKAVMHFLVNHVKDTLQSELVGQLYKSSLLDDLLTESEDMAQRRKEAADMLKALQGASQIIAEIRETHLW

A word on the IC50: it is the point on the concentration scale where inhibition reaches its midpoint. A low value points to inhibition by little substance. As to `Cc1cc(C(=O)NCc2ccc(C(=O)O)cc2)n(Cc2csc(N3CCCCC3)n2)c1` [Compound A-1, 4-((4-methyl-1-((2-(piperidin-1-yl)thiazol-4-yl)methyl)-1H-pyrrole-2-carboxamido)methyl)benzoic Acid], it took 6.4 µM to reach half-maximal inhibition (IC50).
In the case of `Cc1cc(C(=O)NCc2ccccc2)n(Cc2csc(N3CCCCC3)n2)c1` [Compound A-3, N-benzyl-4-methyl-1-((2-(piperidin-1-yl)thiazol-4-yl)methyl)-1H-pyrrole-2-carboxamide], the IC50 came to 4.8 µM and the max % inh turned out to be 70%.
For `CC(=O)NS(=O)(=O)c1ccc(NC(=O)c2cc(C)cn2Cc2csc(N3CCCCC3)n2)cc1` [Compound A-6, N-(4-(N-acetylsulfamoyl)phenyl)-4-methyl-1-((2-(piperidin-1-yl)thiazol-4-yl)methyl)-1H-pyrrole-2-carboxamide] the same measures were 5 µM and 71%.
With `Cc1cc(C(=O)Nc2ccc(-c3nn[nH]n3)cc2)n(Cc2csc(N3CCCCC3)n2)c1` [Compound A-7, N-(4-(1H-tetrazol-5-yl)phenyl)-4-methyl-1-((2-(piperidin-1-yl)thiazol-4-yl)methyl)-1H-pyrrole-2-carboxamide], the IC50 came out at 0.91 µM.
`Cc1cc(C(=O)Nc2ccc(S(N)(=O)=O)cc2)n(Cc2csc(N3CCCCC3)n2)c1` [Compound A-8, 4-methyl-1-((2-(piperidin-1-yl)thiazol-4-yl)methyl)-N-(4-sulfamoylphenyl)-1H-pyrrole-2-carboxamide] returned an IC50 of 2.5 µM.
As to `CCN(CC)c1nc(Cn2cc(C)cc2C(=O)Nc2ccc(C(=O)O)cc2)cs1` [Compound A-9, 4-(1-((2-(diethylamino)thiazol-4-yl)methyl)-4-methyl-1H-pyrrole-2-carboxamido)benzoic Acid], the midpoint of inhibition, the IC50, lay at 51 µM.
On the same count and under the same terms, next, `O=C(O)c1ccc(NC(=O)c2ccccc2Cc2csc(N3CCCCC3)n2)cc1` [Compound A-11, 4-(2-((2-(piperidin-1-yl)thiazol-4-yl)methyl)benzamido)benzoic Acid]: above 100 µM; `Cc1cc(C(=O)Nc2ccc(C(=O)O)cc2)n(Cc2csc(N3CCOCC3)n2)c1` [Compound A-12, 4-(4-methyl-1-((2-morpholinothiazol-4-yl)methyl)-1H-pyrrole-2-carboxamido)benzoic Acid]: 25 µM; `Cc1cc(C(=O)N[C@H]2CC[C@H](C(=O)O)CC2)n(Cc2csc(N3CCCCC3)n2)c1` [Compound A-13, trans-4-(4-methyl-1-((2-(piperidin-1-yl)thiazol-4-yl)methyl)-1H-pyrrole-2-carboxamido)cyclohexane-1-carboxylic Acid]: 5.5 µM.
Same read-out and setting: next, `Cc1cc(C(=O)N[C@H]2CC[C@@H](C(=O)O)CC2)n(Cc2csc(N3CCCCC3)n2)c1` [Compound A-14, cis-4-(4-methyl-1-((2-(piperidin-1-yl)thiazol-4-yl)methyl)-1H-pyrrole-2-carboxamido)cyclohexane-1-carboxylic Acid]: 39 µM.
The compound `Cc1cc(C(=O)Nc2ccccc2)n(Cc2csc(N3CCCCC3)n2)c1` [Compound A-15, 4-methyl-N-phenyl-1-((2-(piperidin-1-yl)thiazol-4-yl)methyl)-1H-pyrrole-2-carboxamide] came in with an IC50 of 2.2 µM and a max % inh of 68%.
Compound `Cc1cc(C(=O)Nc2ccc(C(=O)O)cc2)n(Cc2cccc(N3CCCCC3)n2)c1` [Compound A-16, 4-(4-methyl-1-((6-(piperidin-1-yl)pyridin-2-yl)methyl)-1H-pyrrole-2-carboxamido)benzoic Acid] displayed an IC50 of 1.7 µM.
Take `Cc1cc(C(=O)Nc2ccc(C(=O)O)cc2)n(Cc2csc(-c3ccccc3)n2)c1` [Compound A-17, 4-(4-methyl-1-((2-phenylthiazol-4-yl)methyl)-1H-pyrrole-2-carboxamido)benzoic Acid]: half-maximal inhibition (IC50) required 3.8 µM.
With `Cc1cc(C(=O)Nc2ccc(C(=O)O)cc2)n(Cc2csc(N3CCCCCC3)n2)c1` [Compound A-18, 4-(1-((2-(azepan-1-yl)thiazol-4-yl)methyl)-4-methyl-1H-pyrrole-2-carboxamido)benzoic Acid], half-maximal inhibition (IC50) was put at 3.4 µM.
In turn, `Cc1cc(C(=O)Nc2ccc(C(=O)O)cc2)n(Cc2csc(N3CCCC(C)C3)n2)c1` (stereo not shown) [Compound A-19, 4-(4-methyl-1-((2-(3-methylpiperidin-1-yl)thiazol-4-yl)methyl)-1H-pyrrole-2-carboxamido)benzoic Acid] showed an IC50 of 2.7 µM.
In the case of `Cc1cc(C(=O)Nc2ccc(C(=O)O)cc2)n(Cc2csc(N3CCCCC3C)n2)c1` (stereo not shown) [Compound A-20, 4-(4-methyl-1-((2-(2-methylpiperidin-1-yl)thiazol-4-yl)methyl)-1H-pyrrole-2-carboxamido)benzoic Acid], the IC50 turned out to be 3.9 µM.
Compound `Cc1cc(C(=O)Nc2ccc(C(=O)O)cc2)n(Cc2nc(N3CCCCC3)sc2C)c1` [Compound A-21, 4-(4-methyl-1-((5-methyl-2-(piperidin-1-yl)thiazol-4-yl)methyl)-1H-pyrrole-2-carboxamido)benzoic Acid] yielded an IC50 of 11.9 µM.
Same read-out and setting: the figure for `CNC(=O)c1ccc(NC(=O)c2cc(C)cn2Cc2csc(N3CCCCC3)n2)cc1` [Compound A-22, 4-methyl-N-(4-(methylcarbamoyl)phenyl)-1-((2-(piperidin-1-yl)thiazol-4-yl)methyl)-1H-pyrrole-2-carboxamide] is 1.8 µM; for `Cc1cc(C(=O)Nc2ccc3ccccc3c2)n(Cc2csc(N3CCCCC3)n2)c1` [Compound A-23, 4-methyl-N-(naphthalen-2-yl)-1-((2-(piperidin-1-yl)thiazol-4-yl)methyl)-1H-pyrrole-2-carboxamide] it is 1.6 µM.
Take `Cc1cc(C(=O)Nc2cc(F)c(O)c(F)c2)n(Cc2csc(N3CCCCC3)n2)c1` [Compound A-24, N-(3,5-difluoro-4-hydroxyphenyl)-4-methyl-1-((2-(piperidin-1-yl)thiazol-4-yl)methyl)-1H-pyrrole-2-carboxamide]: the IC50 came to 21.8 µM.
In turn, `Cc1cc(C(=O)NC2CCCC2)n(Cc2csc(N3CCCCC3)n2)c1` [Compound A-25, N-cyclopentyl-4-methyl-1-((2-(piperidin-1-yl)thiazol-4-yl)methyl)-1H-pyrrole-2-carboxamide] came in with an IC50 of 5.7 µM.
With `Cc1cc(C(=O)NC2CCCCC2)n(Cc2csc(N3CCCCC3)n2)c1` [Compound A-26, N-cyclohexyl-4-methyl-1-((2-(piperidin-1-yl)thiazol-4-yl)methyl)-1H-pyrrole-2-carboxamide], the IC50 turned out to be 1.7 µM.
The compound `Cc1cc(C(=O)NC2CCCOC2)n(Cc2csc(N3CCCCC3)n2)c1` (stereo not shown) [Compound A-27, 4-methyl-1-((2-(piperidin-1-yl)thiazol-4-yl)methyl)-N-(tetrahydro-2H-pyran-3-yl)-1H-pyrrole-2-carboxamide] had an IC50 of 9.6 µM.
The same measure, in the same setting: the figure for `Cc1cc(C(=O)N(C)c2ccccc2)n(Cc2csc(N3CCCCC3)n2)c1` [Compound A-28, N,4-dimethyl-N-phenyl-1-((2-(piperidin-1-yl)thiazol-4-yl)methyl)-1H-pyrrole-2-carboxamide] is above 100 µM; for `Cc1cc(C(=O)NC2CCOCC2)n(Cc2csc(N3CCCCC3)n2)c1` [Compound A-29, 4-methyl-1-((2-(piperidin-1-yl)thiazol-4-yl)methyl)-N-(tetrahydro-2H-pyran-4-yl)-1H-pyrrole-2-carboxamide] it is 14.4 µM.
